Assay: Stability of ascorbic acid in water of adjusted pH (DPPH and HPLC)
Assay type: physicochemical
Conditions: 5 ppm in 25° C. water
Experimental: The free ascorbic-acid concentrations were measured immediately after they were prepared so that ascorbic acid was contained in an amount of 5 ppm in 25° C. water whose pH was adjusted to 1, 3, 4, 5, 7, 9 and 11, respectively, and after 24 hours. The free ascorbic acid concentrations were measured by the above-described DPPH radical elimination method and an HPLC method. The HPLC method uses an ODS as the column, and uses an ultraviolet spectrophotometer (wavelength 254 nm) as the detecting device to carry out the measurement. The results are illustrated in FIG. 12.

pH at which ascorbic acid could be stabilized more (24 hours): ≤ 3
pH boundary at or below which the stability of ascorbic acid improved (24 hours): ~5
SMILES: O=C1O[C@H]([C@@H](O)CO)C(O)=C1O [ascorbic acid]
stability of ascorbic acid versus pH (in words) (pH 1, 3, 4, 5, 7, 9, 11, immediately and after 24 hours (FIG. 12)): the lower the pH was the more the stability of ascorbic acid improved
